Test results: US9066938B2, “GPBP-1 inhibition and its therapeutic use” (Fibrostatin S.L., priority 2012, dated 2015)
Where a name gives a salt, the structure may show the parent alone.

Assays:
[1] = test system: GPBP expression in A549 cells; test: GPBP expression in A549 cells after treatment; type: cell-based, human
Method: A549 cells treated for 4 weeks with 1 μM doxorubicin (A549-DR). Fifty μg of cellular lysates of A549 and A549-DR cells were analyzed by Western blot to assess the levels of GPBP using GPBP-specific mAb N27. Tubulin was stained with specific antibodies and used as loading control.
This was assessed by selecting A549 cells with doxorubicin and analyzed GPBP expression by Western blot (FIG. 15).

[2] = molecular target: T1, human recombinant GPBP-1 (Homo sapiens, UniProt Q9Y5P4); test: GPBP-1 in vitro autophosphorylation (kinase) assay with [γ-32P]ATP; type: biochemical
T1 construct: made in house; host or cells: Pichia pastoris
T1 sequence (Q9Y5P4 1-624): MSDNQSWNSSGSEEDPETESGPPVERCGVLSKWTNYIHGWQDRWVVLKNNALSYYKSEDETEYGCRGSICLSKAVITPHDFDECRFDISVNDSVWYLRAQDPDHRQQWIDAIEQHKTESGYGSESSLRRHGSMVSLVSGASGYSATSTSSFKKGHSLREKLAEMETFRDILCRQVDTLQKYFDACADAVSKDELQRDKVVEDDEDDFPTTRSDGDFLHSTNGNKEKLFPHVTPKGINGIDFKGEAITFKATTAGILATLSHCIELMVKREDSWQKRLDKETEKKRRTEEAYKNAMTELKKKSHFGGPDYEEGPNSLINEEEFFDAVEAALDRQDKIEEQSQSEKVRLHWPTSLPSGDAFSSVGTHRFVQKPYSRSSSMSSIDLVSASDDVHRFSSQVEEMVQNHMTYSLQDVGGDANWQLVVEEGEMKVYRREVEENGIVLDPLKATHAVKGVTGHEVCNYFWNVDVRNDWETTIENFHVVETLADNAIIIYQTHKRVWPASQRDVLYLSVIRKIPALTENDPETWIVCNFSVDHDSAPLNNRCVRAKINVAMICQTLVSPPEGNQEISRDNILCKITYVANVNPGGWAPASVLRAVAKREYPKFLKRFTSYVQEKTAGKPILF
Description: To explore the possibility that doxorubicin, an anti-tumor agent targeting topoisomerase II (Pommier et al. 2010), operates through GPBP-1, human recombinant GPBP-1 (Raya et al. 1999) was subjected to in vitro autophosphorylation in the presence or absence of doxorubicin and T12 (FIG. 1A).

[3] = test system: JLSM cells; test: Cell viability of JLSM primary cultures (lung epidermoid carcinoma); type: cell-based, human; details: 36 h
Method: FIG. 14. T12 sharply reduce JLSM cell viability. A and B, JLSM cells were seeded (10.000 cells per cm^2) on collagen-I coated 96-well culture plate. Cells were settled for 4 h and subjected to the indicated treatments and cellular viability assayed after 36 h. Control bars represent cells without T12 or […]. JLSM cells were obtained from a human lung epidermoid carcinoma biopsy following standard procedures. […] Subsequently, explants were further incubated with 1 mL per well of serum-free B-ALITM air-liquid interface medium from CloneticsTM (B-ALI medium). When cells started to grow, explants were removed and cells passed to a collagen I coated flask with fresh medium. Cultures were kept in a humidified 37° C. incubator with 5% (v/v) CO2 and 95% (v/v) air. Cytotoxicity assays were performed with alamarBlue® reagent (Invitrogen) according to manufacturer's instructions. A549 cells were seeded on 96-well culture plates (7,500 cells/well) and allowed to settle during 4 h. Then, cells were cultured with individual peptidomimetics at concentrations ranging from 0 to 50 μM, in presence of doxorubicin at concentrations ranging from 0 to 10 μM for 36 h. […] Fluorescence was measured using 560EX nm/590EM nm filter settings with a SpectraMax […] […] Blank wells containing media were used to determine background fluorescence.

[4] = test system: CSC/SP compartment of A549 cell cultures; test: Side population (CSC/SP) staining with Hoechst 33342, flow cytometry; type: cell-based, human; details: for cell content of the CSC/SP compartment: single compound
Method: FIG. 9. […] A, cultures of A549 cells were incubated with Hoescht 33342 in the absence (−) or presence (+) of verapamil (50 μM) and fumitremorgin C (10 μM). Circled area (R2) denotes the region containing the flow cytometry events representing CSC/SP cells. B, shown are the relative abundance of CSC/SP cells (%) in cell cultures untreated (control) or treated with the indicated compounds.
A549 cells were suspended at 10^6 cells/mL in culture medium containing 10 mM Hepes (previously warmed at 37° C.). Hoechst 33342 was added at 5 μg/mL and cells incubated in a 37° C. bath with shaking for 90 min in the dark. Before incubation (and after staining) an aliquot of 1 mL was taken and verapamil (50 μM) and fumitremorgin C (10 μM) added. Cells were centrifuged at 300×g for 5 min at 4° C. and suspended in cold medium with 10 mM Hepes. Cells were kept at 4° C. until analysis. Analysis of Hoechst 33342 efflux was assessed using a Flow Cytometer with incident 350 nm ultraviolet light. The resulting fluorescence was measured at two wavelengths using 424/44 BP and 675 LP filters that allow detection of Hoechst blue and red, respectively. […] Doxorubicin content in either population was estimated with incident 488 nm blue light and 585/40 filter. Verapamil and fumitremorgin C werer used to identify SP region.

[5] = molecular target: T2, recombinant human GPBP-1 produced in insect cells (Homo sapiens, UniProt Q9Y5P4); test: Affinity constants for GPBP-1 by the Benesi-Hildebrand method; type: binding
T2 construct: FLAG (N); made in house; host or cells: SF9 insect cells (baculovirus, pFastBac1)
T2 sequence (Q9Y5P4 1-624): T1 sequence (Q9Y5P4 1-624)
Method: FIG. 1. […] A, to assess the inhibitory activity of T12 and doxorubicin on GPBP-1 kinase activity and their synergism, approximately 200 ng of yeast FLAG-GPBP-1 from two different preparations with low and high specific activities were incubated with [γ-^32P]ATP in the absence (−) or presence (+) of the indicated compounds and concentrations. Mixtures were subjected to Western blot and autoradiographed (^32P). The levels of GPBP were further analyzed using anti-FLAG (WB). B, in the panel is shown affinity constants of the indicated compounds for recombinant human GPBP-1 produced in insect cells calculated by the Benesi-Hildebrand method. Recombinant yeast GPBP-1 was expressed in Pichia pastoris and affinity-purified as previously described (Raya et al. 1999, raya et al. 2000). To express and purify recombinant FLAG-GPBP-1 from SF9 insect cells, the cDNA of FLAG-GPBP-1 was cloned in the baculovirus expression vector pFastBac1. The plasmid was transformed into DH10Bac competent cells and the recombinant baculovirus was produced following manufacturer's recommendations (Bac-to-Bac™ Baculovirus Expression System, Invitrogen, Life Technologies). Baculovirus was used to infect SF9 cells and GPBP-1 in the supernatant of culture media was purified by affinity chromatography using anti-FLAG agarose (Sigma-Aldrich) following manufacturer's recommendations. GPBP-1 phosphorylation assays were performed as previously described (Raya et al. 1999).

| SMILES | GPBP expression in A549 cells in response to treatment [1] | inhibitory activity on GPBP-1 autophosphorylation in combination with doxorubicin ([2]; T12 plus doxorubicin) | biological activity on JLSM primary cultures, single compound [3] | CSC/SP compartment relative to untreated cultures, co-treatment ([4]; doxorubicin and T12 co-treatment) | cell content of the CSC/SP compartment [4] | affinity / manner of binding to GPBP-1 [5] | inhibition of GPBP-1 autophosphorylation ([2]; compound alone) | binding to GPBP-1, fold stronger than T12 (affinity constants) ([5]; relative to T12) |
| --- | --- | --- | --- | --- | --- | --- | --- | --- |
| COc1ccc(-c2ccc(-c3cccc(C)c3)c(C)c2)c(CCC(=O)O)c1 [T12, 3-[4″-methoxy-3,2′-dimethyl-(1,1′;4′,1″)terphenyl-2″-yl] propionic acid] | no evidence for increased expression of GPBP | synergistic | highly sensitive | one fourth | reduction | light-moderated affinity | – | – |
| COc1cccc2c1C(=O)c1c(O)c3c(c(O)c1C2=O)C[C@@](O)(C(=O)CO)C[C@@H]3O[C@H]1C[C@H](N)[C@H](O)[C@H](C)O1 [doxorubicin, doxorubicin hydrochloride, reference compound] | increased GPBP cell expression | – | virtually resistant | – | reduction | irreversible | efficiently inhibited | ~10^5 fold |
